Some test systems named below: 786-0 renal; A549 NSCLC; CAKI-1 renal; K-562 leukemia; KM12 colon; MDA-MB-435; NCI/ADR-RES ovarian; OVCAR-4 ovarian; SF-295 CNS; U251 CNS.
Test in all cases: inhibition of tumour cell growth, NCI panel, 48 h

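All cell lines were grown in 96-well plates and treated with compound for 48 hours. GI50 marks 50% less growth. At the TGI there is no net growth.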

Take `O=[N+]([O-])c1cc(C(F)(F)F)ccc1Sc1ccc(C(F)(F)F)cc1[N+](=O)[O-]`: the GI50 in the test with 786-0 renal is greater than 100 µM; with A549 NSCLC, 24.9 µM; in the test on CAKI-1 renal it was 5.67 µM; with K-562 leukemia, 3.49 µM; in the test on KM12 colon, 5.24 µM; with MDA-MB-435, 3.04 µM. In addition, the GI50 was 8.19 µM in the test on NCI/ADR-RES ovarian, 4.05 µM with OVCAR-4 ovarian, 31.4 µM in the test with SF-295 CNS and 12.9 µM in the test with U251 CNS. The TGI in the test with 786-0 renal, with A549 NSCLC, in the test with CAKI-1 renal, in the test on K-562 leukemia, in the test on KM12 colon and in the test on MDA-MB-435 was greater than 100 µM each time. For the same molecule, the TGI in the test on NCI/ADR-RES ovarian, with OVCAR-4 ovarian, with SF-295 CNS and in the test with U251 CNS was greater than 100 µM in each case.

As for `CC(CN(C)C)Oc1ccccc1NC1=C(Cl)C(=O)C(Nc2ccccc2OC(C)CN(C)C)=C(Cl)C1=O` (stereo not given), the GI50 with 786-0 renal is 0.708 µM; with A549 NSCLC it was 1.7 µM; with CAKI-1 renal it was 1.34 µM; in the test on K-562 leukemia, 0.21 µM; in the test on KM12 colon it was 1.2 µM; with MDA-MB-435 it was 0.753 µM. Moreover, the GI50 with NCI/ADR-RES ovarian is 1.97 µM; in the test with OVCAR-4 ovarian, 0.146 µM; in the test with SF-295 CNS it was 1.83 µM; in the test on U251 CNS, 1.33 µM. The TGI with 786-0 renal turned out to be 2.01 µM; in the test on A549 NSCLC, 3.24 µM; in the test with CAKI-1 renal it was 2.72 µM; in the test with K-562 leukemia, 0.507 µM; with KM12 colon, 2.57 µM; in the test with MDA-MB-435 it was 2.15 µM. Further, the TGI in the test on NCI/ADR-RES ovarian is 8.53 µM; in the test with OVCAR-4 ovarian it was 0.279 µM; in the test on SF-295 CNS, 3.46 µM; in the test on U251 CNS, 2.73 µM.

As for `O=C(Nc1cccc(-c2ccc(Cl)c(C(F)(F)F)c2)c1)C1CCN(Cc2cccc3cccnc23)CC1`, the GI50 is 1.7 µM in the test with 786-0 renal; 1.91 µM with A549 NSCLC; 1.61 µM in the test on CAKI-1 renal; 1.1 µM in the test with K-562 leukemia; 1.8 µM in the test on KM12 colon; 1.71 µM in the test on MDA-MB-435. The GI50 in the test on NCI/ADR-RES ovarian is 1.69 µM; with OVCAR-4 ovarian, 1.59 µM; in the test on SF-295 CNS, 1.73 µM; in the test with U251 CNS it was 1.71 µM. Moreover, the TGI in the test on 786-0 renal is 3.26 µM; in the test on A549 NSCLC it was 3.85 µM; in the test on CAKI-1 renal it was 2.97 µM; with K-562 leukemia it was 5.99 µM; in the test with KM12 colon it was 3.43 µM; with MDA-MB-435 it was 3.1 µM. The TGI in the test on NCI/ADR-RES ovarian was 3.31 µM; in the test with OVCAR-4 ovarian it was 3.08 µM; in the test on SF-295 CNS, 3.22 µM; in the test on U251 CNS it was 3.29 µM.

On to `Cc1cn2c(/C=N/N=C(N)N)c(-c3ccccn3)nc2s1`, for which the GI50 in the test with 786-0 renal is 6.56 µM; with A549 NSCLC, 21.1 µM; in the test with CAKI-1 renal, 20.8 µM; with K-562 leukemia, 19.5 µM; with KM12 colon it was 15.4 µM; with MDA-MB-435, 19 µM. In addition, the GI50 with NCI/ADR-RES ovarian was greater than 27.1 µM; in the test with OVCAR-4 ovarian, 15.2 µM; in the test with SF-295 CNS it was 17.1 µM; in the test on U251 CNS, 19.1 µM. For the same molecule, the TGI is 17.9 µM in the test with 786-0 renal; greater than 70.1 µM with A549 NSCLC; 41.7 µM in the test on CAKI-1 renal; greater than 100 µM in the test with K-562 leukemia; 33.2 µM in the test on KM12 colon; 41.6 µM in the test with MDA-MB-435. The TGI in the test with NCI/ADR-RES ovarian was greater than 67.8 µM; in the test on OVCAR-4 ovarian, 40.1 µM; with SF-295 CNS it was 37.1 µM; in the test with U251 CNS, 45.1 µM.

On to `O=C(N/N=C/c1ccc(O)cc1O)c1cccc(Nc2ccnc(C(F)(F)F)c2)c1`, for which the GI50 was 1.14 µM in the test with 786-0 renal; 6.44 µM with A549 NSCLC; 1.99 µM with CAKI-1 renal; 0.587 µM with K-562 leukemia; 2.73 µM in the test with KM12 colon; 0.861 µM in the test on MDA-MB-435. Also, the GI50 in the test with NCI/ADR-RES ovarian was 9.05 µM; in the test on OVCAR-4 ovarian, 0.573 µM; with SF-295 CNS, 1.88 µM; in the test with U251 CNS it was 0.617 µM. For the same molecule, the TGI in the test with 786-0 renal was 10.6 µM; in the test with A549 NSCLC, greater than 72 µM; in the test on CAKI-1 renal, 22.5 µM; in the test on K-562 leukemia, 19.4 µM; with KM12 colon it was 16.2 µM; with MDA-MB-435, 20.8 µM. Further, the TGI in the test on NCI/ADR-RES ovarian is greater than 90.1 µM; with OVCAR-4 ovarian, 51.5 µM; in the test with SF-295 CNS, 45.8 µM; in the test on U251 CNS, 49 µM.

As to `Cc1cc2c(C(N)=O)c(N)n(-c3c(C)ccc(O)c3C)c2nc1C`, the GI50 in the test with 786-0 renal was 3.37 µM; in the test with A549 NSCLC, 4.53 µM; in the test on CAKI-1 renal, 0.4 µM; in the test on K-562 leukemia it was 2 µM; in the test on KM12 colon it was 4.54 µM; with MDA-MB-435 it was 1.04 µM. Further, the GI50 with NCI/ADR-RES ovarian was 6.48 µM; in the test on OVCAR-4 ovarian it was 0.998 µM; with SF-295 CNS, 0.871 µM; in the test on U251 CNS, 4.23 µM. Also, the TGI in the test on 786-0 renal was greater than 100 µM; with A549 NSCLC, 47.4 µM; with CAKI-1 renal, 10.3 µM; with K-562 leukemia, greater than 100 µM; in the test with KM12 colon, greater than 100 µM; with MDA-MB-435 it was 3.33 µM. In addition, the TGI worked out at 32.7 µM in the test on NCI/ADR-RES ovarian, 8.03 µM in the test with OVCAR-4 ovarian, 35.4 µM with SF-295 CNS and 34.1 µM in the test on U251 CNS.

With `COc1cc(-c2csc(NC(=O)Nc3ccc(C(F)(F)F)cc3)n2)cc(OC)c1OC`, the GI50 in the test with 786-0 renal was 1.62 µM; with A549 NSCLC, 2.74 µM; with CAKI-1 renal, 2.41 µM; with K-562 leukemia it was 3.04 µM; in the test on KM12 colon it was 2.09 µM; in the test on MDA-MB-435, 1.71 µM. Moreover, the GI50 in the test on NCI/ADR-RES ovarian is 2.12 µM; in the test with OVCAR-4 ovarian it was 2.02 µM; in the test with SF-295 CNS, 1.66 µM; in the test on U251 CNS, 1.97 µM. Further, the TGI in the test with 786-0 renal was 3.54 µM; in the test on A549 NSCLC, 11.7 µM; with CAKI-1 renal, 8.62 µM; in the test with K-562 leukemia, greater than 100 µM; in the test on KM12 colon it was 7.48 µM; with MDA-MB-435 it was 3.74 µM. The TGI was 6.94 µM in the test on NCI/ADR-RES ovarian, 9.07 µM in the test on OVCAR-4 ovarian, 4.35 µM in the test on SF-295 CNS and 4.32 µM with U251 CNS.

As for `CN1CCN(c2ccc(NC(=O)c3cncnc3Nc3ccc(OCc4ccccn4)c(Cl)c3)cc2)CC1`, the GI50 in the test on 786-0 renal is 0.763 µM; in the test with A549 NSCLC, 2.22 µM; in the test with CAKI-1 renal, 4.78 µM; in the test on K-562 leukemia, 0.778 µM; in the test with KM12 colon, 4.16 µM; in the test with MDA-MB-435 it was 0.605 µM. The GI50 with NCI/ADR-RES ovarian is 6.28 µM; in the test with OVCAR-4 ovarian it was 4.69 µM; in the test on SF-295 CNS it was 5.98 µM; in the test on U251 CNS, 2.64 µM. Besides, the TGI is 1.68 µM in the test with 786-0 renal; 7.71 µM with A549 NSCLC; 11.7 µM in the test with CAKI-1 renal; 2.28 µM in the test with K-562 leukemia; 9.63 µM with KM12 colon; 1.14 µM in the test on MDA-MB-435. In addition, the TGI in the test on NCI/ADR-RES ovarian was determined as 17.1 µM; with OVCAR-4 ovarian it was 12.4 µM; with SF-295 CNS, 13.1 µM; in the test with U251 CNS, 8.53 µM.

The values above are taken from PubChem BioAssay (NCI).
